Reference: patent US11052154B2, “Ras protein degradation inducing molecule and pharmaceutical composition” (Tokyo University of Science Foundation, priority 2016, dated 2021)

Legend:
[1] = Body weight change and general condition of mice with subcutaneously implanted SW1990 cells; format: in vivo, mouse; settings: oral 80 mg/kg once every 3 days, 7 doses
Method: To the subcutis of T-cell deficient mice (BALB/cAJcl-nu/nu, 4 weeks old, female) (CLEA Japan, Inc.), 0.1 mL of cell suspension in which SW1990 cells were suspended in PBS so as to be 1×10^7 cells/mL was implanted using a 26-gauge injection needle (TERUMO CORPORATION).
Immediately before administration, TUS-007 was dissolved in DMSO, 0.5 mass % carboxymethyl cellulose (Code No. 039-01335, Wako Pure Chemical Industries, Ltd.) solution was added so that the concentration of DMSO became 2.5 vol %, followed by pulverization by ultrasonic treatment to prepare a suspension of TUS-007. When the tumors of mice with subcutaneously implanted SW1990 cells grew to a size of approximately 100 mm^3, the prepared TUS-007 suspension was orally administered by gavage with a gastric tube (Code No. 5202K, Fuchigami Kikai) at a dose of 80 mg/kg body weight once every 3 days for a total of 7 doses (n=6 to 9). As a control (Vehicle), 0.5 mass % carboxymethyl cellulose solution containing 2.5 vol % DMSO was administered in the same manner.

[2] = target: T1, endogenous wild-type K-Ras protein (Homo sapiens, UniProt P01116); assay: Degradation of endogenous wild-type K-Ras protein in HeLa cells, Western blot analysis; format: cell-based; settings: 48 hours after addition, vs control (DMSO), FIG. 5
T1 construct: an endogenous wild-type K-Ras protein; endogenous in cells; host or cells: HeLa
T1 sequence (P01116 1-188 isoform P01116-2): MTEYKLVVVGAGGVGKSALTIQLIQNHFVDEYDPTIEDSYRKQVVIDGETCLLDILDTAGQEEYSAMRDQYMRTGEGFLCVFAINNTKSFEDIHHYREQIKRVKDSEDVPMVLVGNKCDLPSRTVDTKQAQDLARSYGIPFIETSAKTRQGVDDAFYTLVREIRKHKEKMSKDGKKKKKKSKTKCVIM
Method: In Example 6, degradation (knockdown) of an endogenous wild-type K-Ras protein and wild-type H-Ras protein in HeLa cells to which TUS-007 had been added was evaluated by Western blot analysis.
HeLa cells were seeded in a 24-well plate at a cell density of 8×10^4 cells/well, and then cultured under conditions of 37° C. and 5 vol % CO2 for 16 hours.
After 16 hours from cell seeding, TUS-007 was added to HeLa cells as follows. As a medium, a serum-free medium (37° C.) in which 1 mass % L-glutamine solution (Sigma-Aldrich) was added to D-MEM (high D-glucose, phenol red, sodium pyruvate (Wako Pure Chemical Industries, Ltd.)) was used. It is noted that the L-glutamine solution was added immediately before use. A DMSO solution containing TUS-007 was mixed with the medium so that the concentration of DMSO was 1 vol %, and added to each well at 500 μL/well, and cultured under conditions of 37° C. and 5 vol % CO2. As a control, DMSO was used. […]
After electrophoresis, proteins were transferred to a PVDF membrane (Immobion™-P, Millipore) under conditions of 100 V and 2 hours using a tank-type blotting device and a transfer buffer (25 mM Tris-HCl, 195 mM glycine, 0.01% SDS, 15% methanol). […] Subsequently, the membrane was treated with a chemiluminescence reagent Immobilon™ Western (Millipore), and then chemiluminescence was detected using a lumino image analyzer LAS-3000 (FUJIFILM Corporation). […]

In the case of `CCC(C)[C@H](NC(=O)CCCCCCNC(=O)[C@H](CC(C)C)NC(=O)CNC(=O)c1cc(Cl)ccc1Cl)C(=O)Nc1ccc2[nH]c(Cc3c[nH]c4ccccc34)nc2c1` (stereo in doubt) [TUS-007], the “general condition of the mice” value [1] is reported as “no abnormality in the general condition of the mice”, the body weight changes ([1]; vs Vehicle, FIG. 9B) is reported as “no significant differences in body weight changes” and the “amount of the endogenous wild-type K-Ras protein (Western blot)” value [2] is reported as “the amount of the endogenous wild-type K-Ras protein and wild-type H-Ras protein was reduced”.
